Experimental data reported in patent US20240293318A1, “CLEAVABLE LINKER-CONTAINING IONIZABLE LIPIDS AND LIPID CARRIERS FOR THERAPEUTIC COMPOSITIONS” (Flagship Pioneering Innovations VII, LLC, priority 2023, published 2024).

How the values were obtained:
[1] = LNP size and polydispersity index by dynamic light scattering (DLS); type: physicochemical; details: hEPO mRNA, Lipid:Cholesterol:DSPC:PEG-2k 50:38.5:10:1.5, N:P 6
Text: (§1) Various lipid nanoparticle compositions comprising a nucleic acid payload are characterized by a variety of methods. For example, dynamic light scattering (DLS) is used to determine particle sizes (Wyatt Dynapro Platereader 111). In addition, instruments such as the Zetasizer Nano ZS (Malvern Instruments Ltd) are used to measure multiple physical properties of a lipid nanoparticle composition, such as particle size, polydispersity index (PDI), and zeta potential. Fluorescence-based assays are used to determine the efficiencies of nucleic acid encapsulation in the lipid nanoparticles. Fluorescence-based assays are used to determine the “apparent pKa” of the lipid nanoparticles. Both fluorescence assays are evaluated on a Varioskanlux plate reader (ThermoScientific).
After formulation and processing of the lipid nanoparticle compositions, the Z-average size of lipid nanoparticle composition are assayed by dynamic light scattering (DLS) (e.g., using a Wyatt Dynapro Platereader III or Malvern Zetasizer ZS). Briefly, an aliquot of 2 uL of the processed nanoparticle composition mixture (at an RNA concentration of approximately 0.5 mg/mL) is diluted into 50 uL phosphate buffered saline (0.1×PBS) and loaded into a 384 well plate. The sample is then analyzed to determine nanoparticle size.
(§2) LNPs were characterized by dynamic light scattering (DLS) measurement for measuring its hydrodynamic radius and polydispersity index (PDI). Encapsulation efficiency (EE %) and total RNA concentration were quantitated using a fluorescence based Ribogreen assay.

[2] = Zeta potential assay of LNPs; type: physicochemical; details: LNP, hEPO mRNA, Lipid:Cholesterol:DSPC:PEG-2k 50:38.5:10:1.5, N:P 6
Text: as §1
A Zetasizer Nano ZS (Malvern Instruments Ltd) is used to determine the zeta potential of the nanoparticle compositions. Briefly, a 5 uL aliquot of an approximately 0.5 mg mRNA/mL sample is diluted into 800 uL 0.1×PBS. This sample is then transferred to a disposable conducting cuvette and the zeta potential is measured.

[3] = Encapsulation efficiency, fluorescence based Ribogreen assay; type: physicochemical; details: LNP, hEPO mRNA, Lipid:Cholesterol:DSPC:PEG-2k 50:38.5:10:1.5, N:P 6
Procedure: For lipid nanoparticle formulations containing an RNA, a QUANTIT™ RIBOGREEN® RNA assay (Invitrogen Corporation) is used to evaluate the encapsulation of RNA within the lipid nanoparticle formulation.
The samples are diluted to ˜10 ug/ml in TE buffer. In a 96 well plate, 50 ul of the diluted sample is added to 50 uL TE buffer in duplicates and 20 uL of diluted sample is added to 80 uL Triton X buffer (2% triton in TE buffer) in duplicates. The plate is incubated for 10 minutes at room temperature. Next, RIBOGREEN® is diluted 1:200 in TE BUFFER, and 100 uL is added to each sample well. The fluorescence intensity is measured using a fluorescence plate reader (e.g., Varioskanlux, ThermoScientific) at an excitation wavelength of about 480 nm and an emission wavelength of about 520 nm. The encapsulation efficiency can be determined by using the percentage ratio of non-encapsulated RNA (TE sample) over the total RNA (TX sample), then subtracting from 100 to find the percentage of encapsulated RNA amount.
as §2

[4] = Apparent pKa of LNPs (TNS assay); type: physicochemical; details: LNP, hEPO mRNA, Lipid:Cholesterol:DSPC:PEG-2k 50:38.5:10:1.5, N:P 6
Text: as §1
The apparent pKa of lipid nanoparticle composition is measured using a 6-(p-Toluidino)-2-naphthalenesulfonic acid (TNS) assay. Briefly, lipid nanoparticles (10 uL of approximately 0.5 mg mRNA/mL) and TNS probe (40 uL of 1 mM stock) are added to 750 uL of TNS buffer (25 mM citric acid, 20 mM sodium phosphate, 150 mM NaCl, and 20 mM ammonium acetate), at a pH ranging from 2 to 10. 20 uL of each sample are added to 80 uL of buffer at each pH in a 96-well plate. The plate is incubated for 10 minutes, and the fluorescence signal is measured by means of a spectrofluorometer (Varioskanlux, ThermoScientific) with excitation/emission settings of λex=321 nm, and λem=445 nm. The apparent pKa of the nanoparticle composition is determined by deriving the pH at which 50% of the pH 2 fluorescent signal is present. All datapoints are normalized to the fluorescent signal at pH 2.

C57BL/6 female mice = assay: In vivo hEPO expression of hEPO mRNA LNPs, serum ELISA; details: LNP 50:38.5:10:1.5, N:P 6, 0.2 mg/kg hEPO mRNA, tail vein injection, blood serum 6 h post-administration
Procedure: In this example, messenger RNA molecules encoding hEPO proteins were formulated in lipid nanoparticles for delivery in vivo. The lipid nanoparticle (LNP) formulations comprised of a lipid composition of ionizable lipid: helper lipid: cholesterol. DMG-PEG2k at 50:10:38.5:1.5 mol %. The lipid mixture in ethanol was mixed with hEPO mRNA in RNA acidifying buffer (10 mM citrate, pH 4) at an ionizable-lipid-nitrogen-to-RNA-phosphate ratio (N:P) of 6 using a microfluidic device (Precision NanoSystems, Inc.) at a combined flow rate of 10 mL/min (7.5 mL/min for aqueous buffer, RNA and 2.5 mL/min for ethanol, lipid mix). The resulting particles were neutralized by buffer exchange into Dulbecco's phosphate buffer solution via PD-10 desalting column. The neutralized particles were concentrated using 100 kDa AMICON® Ultra centrifugal filters and sterile filtered using 0.2 um syringe filters. Samples were then characterized and diluted as needed (3 replicates).
The in vivo studies were performed in C57BL/6 female mice at 6 to 8 weeks weighing in at approximately 20 g. The LNPs formulated with different ionizable lipids at 0.2 mg/kg of hEPO mRNA were administered by tail vein injection and animals were euthanized at 6 h post-administration for blood serum sample collection. The hEPO levels from the samples were analyzed and cross-compared by enzyme-linked immunoassay (ELISA) according to manufacturer's protocol. The hEPO expression levels for each of the LNPs was compared to a control LNP comprising SM102 (DC Chemicals Cat. No. DC52025). (FIG. 1).

Compound | PDI [1] | Size [1] [nm] | Zeta [2] [mV] | EE [3] [%] | pKa [4] | hEPO (C57BL/6 female mice) [ng/mL]
CCCCCCCCCCCCCCOC(=O)CCN(CCO)CCCCCCCC(=O)OC(CCCCCCCC)CCCCCCCC [Lipid 1] | 0.267 | 65.8 | −8.8 | 97.9 | 5.1 | 0.00
CCCCCCCCCCCCCOC(=O)CCN(CCO)CCCCCCCC(=O)OC(CCCCCCCC)CCCCCCCC [Lipid 2] | 0.399 | 68.8 | 0.1 | 97.9 | 5.1 | 0.00
CCCCCCCCCCCCOC(=O)CCN(CCO)CCCCCCCC(=O)OC(CCCCCCCC)CCCCCCCC [Lipid 3] | 0.48 | 62.8 | −9.2 | 97.6 | 5.1 | 0.00
CCCCCCCCCCCOC(=O)CCN(CCO)CCCCCCCC(=O)OC(CCCCCCCC)CCCCCCCC [Lipid 4] | 0.103 | 56.2 | −9.3 | 97.5 | 5.1 | 0.00
CCCCCCCCCCCOC(=O)CCCCCN(CCO)CCCCCCCNP(=O)(OCCCCCCCCC)OCCCCCCCCC [Lipid 5] | 0.358 | 87.4 | −1.0 | 95.3 | 6.8 | 114.89
CCCCCCCCCCCOC(=O)CCCCCN(CCO)CCCCCCCNP(=O)(OCCCCCCCC)OCCCCCCCC [Lipid 6] | 0.227 | 132.7 | −0.4 | 95.8 | 6.9 | 304.28
CCCCCCCCCCCOC(=O)CCCCCN(CCO)CCCCCCCOP(=O)(NCCCCCCCCC)OCCCCCCCCC (centres unmarked) [Lipid 7] | 0.296 | 145.3 | −2.0 | 97.2 | 6.9 | 80.47
CCCCCCCCCCCOC(=O)CCCCCN(CCO)CCCCCCCOP(=O)(NCCCCCCCC)OCCCCCCCC (centres unmarked) [Lipid 8] | 0.302 | 134.7 | 0.1 | 94.2 | 7.0 | 93.09
CCCCCCCCCCCOP(=O)(NCCCCCN(CCO)CCCCCCCC(=O)OC(CCCCCCCC)CCCCCCCC)OCC (centres unmarked) [Lipid 9] |  |  |  |  | 7.0 | 184.44
CCCCCCCCCCOP(=O)(NCCCCCN(CCO)CCCCCCCC(=O)OC(CCCCCCCC)CCCCCCCC)OCC (centres unmarked) [Lipid 10] | 0.064 | 85.6 | 0.8 | 99.6 | 7.2 | 90.05
CCCCCCCCCOP(=O)(NCCCCCN(CCO)CCCCCCCC(=O)OC(CCCCCCCC)CCCCCCCC)OCC (centres unmarked) [Lipid 11] | 0.08 | 94.4 | 2.6 | 99.7 | 7.3 | 63.81
CCCCCCCCCCCNP(=O)(OCC)OCCCCCN(CCO)CCCCCCCOP(=O)(NCCCCCCCCC)OCCCCCCCCC (centres unmarked) [Lipid 12] | 0.316 | 87.6 | 3.5 | 99.3 | 8.3 | 0.00
CCCCCCCCCNP(=O)(OCCCCCCCCC)OCCCCCCCN(CCO)CCCCCOP(=O)(NCCCCCCCCC)OCCCCCCCCC (centres unmarked) [Lipid 13] | 0.108 | 67.1 | 2.4 | 96.7 | 7.8 | 49.71
CCCCCCCCCCCNP(=O)(OCC)OCCCCCN(CCO)CCCCCCCC(=O)OC(CCCCCCCC)CCCCCCCC (centres unmarked) [Lipid 14] | 0.248 | 101.5 | 0.9 | 98.3 | 6.9 | 33.98
CCCCCCCCCCNP(=O)(OCC)OCCCCCN(CCO)CCCCCCCC(=O)OC(CCCCCCCC)CCCCCCCC (centres unmarked) [Lipid 15] | 0.165 | 83.1 | 0.2 | 94.8 | 7.0 | 123.69
CCCCCCCCCNP(=O)(OCC)OCCCCCN(CCO)CCCCCCCC(=O)OC(CCCCCCCC)CCCCCCCC (centres unmarked) [Lipid 16] | 0.116 | 91.6 | −0.4 | 88.1 | 7.0 | 79.22
CCCCCCCCC(CC)OC(=O)CCCCCCCN(CCCCCCCC(=O)OC(CCCCCCCC)CCCCCCCC)CCCNc1nnc(N)[nH]1 (centres unmarked) [Lipid 17] | 0.169 | 75.1 | −14.1 | 98.8 | 6.1 | 6.59
